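Protocol summary: plate cells (96-well), add compound at 5 concentrations, incubate 48 h, interpolate endpoints linearly. GI50: concentration for 50% inhibition of growth. The concentration for full growth arrest is given as TGI.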
Legend:
Experiment in all cases: NCI tumour cell line growth inhibition, 48 h
A498 renal = test system: A498 renal
A549 NSCLC = test system: A549 NSCLC
CAKI-1 renal = test system: CAKI-1 renal
CCRF-CEM leukemia = test system: CCRF-CEM leukemia
COLO 205 colon = test system: COLO 205 colon
DLD-1 colon = test system: DLD-1 colon
DMS 114 small cell lung = test system: DMS 114 small cell lung
DMS 273 small cell lung = test system: DMS 273 small cell lung
EKVX NSCLC = test system: EKVX NSCLC
HCC-2998 colon = test system: HCC-2998 colon
HCT-116 colon = test system: HCT-116 colon
HCT-15 colon = test system: HCT-15 colon
HL-60(TB) leukemia = test system: HL-60(TB) leukemia
HOP-18 NSCLC = test system: HOP-18 NSCLC
HOP-62 NSCLC = test system: HOP-62 NSCLC
HOP-92 NSCLC = test system: HOP-92 NSCLC
HT29 colon = test system: HT29 colon
IGROV1 ovarian = test system: IGROV1 ovarian
K-562 leukemia = test system: K-562 leukemia
KM12 colon = test system: KM12 colon
KM20L2 colon = test system: KM20L2 colon
LOX IMVI melanoma = test system: LOX IMVI melanoma
M19-MEL melanoma = test system: M19-MEL melanoma
MALME-3M melanoma = test system: MALME-3M melanoma
MCF7 breast = test system: MCF7 breast
MOLT-4 leukemia = test system: MOLT-4 leukemia
NCI-H226 lung = test system: NCI-H226 lung
NCI-H23 lung = test system: NCI-H23 lung
NCI-H460 lung = test system: NCI-H460 lung
NCI-H522 lung = test system: NCI-H522 lung
NCI/ADR-RES ovarian = test system: NCI/ADR-RES ovarian
OVCAR-3 ovarian = test system: OVCAR-3 ovarian
OVCAR-4 ovarian = test system: OVCAR-4 ovarian
OVCAR-5 ovarian = test system: OVCAR-5 ovarian
OVCAR-8 ovarian = test system: OVCAR-8 ovarian
P388 leukemia = test system: P388 leukemia
P388/ADR leukemia = test system: P388/ADR leukemia
RPMI-8226 leukemia = test system: RPMI-8226 leukemia
RXF 393 renal = test system: RXF 393 renal
SF-268 CNS = test system: SF-268 CNS
SF-295 CNS = test system: SF-295 CNS
SF-539 CNS = test system: SF-539 CNS
SK-MEL-2 melanoma = test system: SK-MEL-2 melanoma
SK-MEL-28 melanoma = test system: SK-MEL-28 melanoma
SK-MEL-5 melanoma = test system: SK-MEL-5 melanoma
SK-OV-3 ovarian = test system: SK-OV-3 ovarian
SN12C renal = test system: SN12C renal
SN12K1 renal = test system: SN12K1 renal
SNB-19 CNS = test system: SNB-19 CNS
SNB-75 CNS = test system: SNB-75 CNS
SNB-78 CNS = test system: SNB-78 CNS
SW-620 colon = test system: SW-620 colon
U251 CNS = test system: U251 CNS
UACC-257 melanoma = test system: UACC-257 melanoma
UACC-62 melanoma = test system: UACC-62 melanoma
UO-31 renal = test system: UO-31 renal
XF 498 CNS = test system: XF 498 CNS

`Nc1ncnc2nc[nH]c12` gave a TGI (A498 renal) of 11.1 µM, a GI50 (A549 NSCLC) of 75.6 µM and a TGI (A549 NSCLC) greater than 250 µM. It also gave a GI50 (CAKI-1 renal) of 58.9 µM, a TGI (CAKI-1 renal) greater than 250 µM and a GI50 (CCRF-CEM leukemia) of 32.4 µM. For the same molecule, the TGI (CCRF-CEM leukemia) was greater than 250 µM, the TGI (COLO 205 colon) was greater than 221 µM and the TGI (DLD-1 colon) was greater than 250 µM. For the same molecule, the TGI (DMS 114 small cell lung) was greater than 250 µM, the TGI (DMS 273 small cell lung) was greater than 206 µM and the TGI (EKVX NSCLC) was greater than 250 µM. The TGI (HCC-2998 colon) was greater than 191 µM, the TGI (HCT-116 colon) was greater than 250 µM and the TGI (HCT-15 colon) was greater than 250 µM. It also gave a TGI (HL-60(TB) leukemia) of 228 µM, a TGI (HOP-18 NSCLC) greater than 250 µM and a TGI (HOP-62 NSCLC) greater than 250 µM. For the same molecule, the TGI (HOP-92 NSCLC) was greater than 250 µM, the TGI (HT29 colon) was greater than 250 µM and the TGI (IGROV1 ovarian) was greater than 250 µM. The TGI (K-562 leukemia) was greater than 250 µM, the TGI (KM12 colon) was greater than 158 µM and the TGI (KM20L2 colon) was greater than 250 µM. The TGI (LOX IMVI melanoma) was greater than 250 µM, the TGI (M19-MEL melanoma) was greater than 250 µM and the GI50 (MALME-3M melanoma) was 86 µM. The TGI (MALME-3M melanoma) was greater than 232 µM, the TGI (MCF7 breast) was greater than 162 µM and the GI50 (MOLT-4 leukemia) was 15.8 µM. It also gave a TGI (MOLT-4 leukemia) of 159 µM, a TGI (NCI-H226 lung) greater than 250 µM and a TGI (NCI-H23 lung) greater than 250 µM. For the same molecule, the GI50 (NCI-H460 lung) was 21.3 µM, the TGI (NCI-H460 lung) was greater than 250 µM and the TGI (NCI-H522 lung) was 220 µM. The TGI (NCI/ADR-RES ovarian) was 99.5 µM, the GI50 (OVCAR-3 ovarian) was 113 µM and the TGI (OVCAR-3 ovarian) was greater than 250 µM. The TGI (OVCAR-4 ovarian) was greater than 250 µM, the TGI (OVCAR-5 ovarian) was greater than 250 µM and the TGI (OVCAR-8 ovarian) was greater than 250 µM. It also gave a TGI (P388 leukemia) greater than 250 µM, a TGI (P388/ADR leukemia) greater than 250 µM and a TGI (RPMI-8226 leukemia) greater than 250 µM. For the same molecule, the TGI (RXF 393 renal) was 88 µM, the GI50 (SF-268 CNS) was 143 µM and the TGI (SF-268 CNS) was greater than 250 µM. It also gave a TGI (SF-295 CNS) greater than 250 µM, a TGI (SF-539 CNS) greater than 250 µM and a TGI (SK-MEL-2 melanoma) greater than 250 µM. The TGI (SK-MEL-28 melanoma) was greater than 250 µM, the TGI (SK-MEL-5 melanoma) was greater than 250 µM and the TGI (SK-OV-3 ovarian) was greater than 250 µM. It also gave a TGI (SN12C renal) greater than 237 µM, a TGI (SN12K1 renal) greater than 250 µM and a GI50 (SNB-19 CNS) of 105 µM. The TGI (SNB-19 CNS) was greater than 146 µM, the TGI (SNB-75 CNS) was greater than 155 µM and the TGI (SNB-78 CNS) was greater than 158 µM. For the same molecule, the TGI (SW-620 colon) was greater than 250 µM, the TGI (U251 CNS) was greater than 250 µM and the TGI (UACC-257 melanoma) was greater than 250 µM. For the same molecule, the TGI (UACC-62 melanoma) was greater than 250 µM, the TGI (UO-31 renal) was greater than 250 µM and the TGI (XF 498 CNS) was 20.8 µM.
